Test results published in publication PMC10740156, “Discovery of potential WEE1 inhibitors via hybrid virtual screening” (Frontiers in Pharmacology, 2023).
Counter-ions that a name gives are not always drawn. Each block holds one compound with its values, some of them ahead of it.

Columns and labels:
[1] = molecular target: WEE1 kinase (Homo sapiens, UniProt P30291); assay: Inhibitory activity assay (ADP-Glo kinase assay); type: biochemical; settings: for Inhibition Rate / inhibition at 25 µM: compound 25 μM, relative inhibition rate, Staurosporine (10 µM) as positive control; for IC50: WEE1 kinase
Method: The tested compounds were dissolved in DMSO to make a 10 mM stock solution, which was further diluted to a drug solution of 25 µM. […] Transfer 20 nL compound to 384 assay plate by Echo 655. […] 8 μL of kinase detection reagent was added to the well, and incubated for 40 min at 25°C. Read the RLU (relative light-emitting unit) signal using the BMG multifunction microplate reader, and the signal intensity is used to characterize the degree of kinase activity. […] Staurosporine is a prototypical ATP-competitive kinase inhibitor in that it binds to many kinases with high affinity. The inhibition rates were calculated using the equations (X: log of inhibitor concentration; Y: % Inhibition). Assays were performed on three independent experiments. Y=Bottom+Top – Bottom/(1+10^ (LogIC50 – X×hillslope))

[2] = tested on: HuH-7 cells; assay: Anti-proliferation activity assay (CCK-8); type: cell-based, human
Method: (§1) Anti-proliferation activity assay was detected by Cell Counting Kit-8 detection kit (CCK-8, #K1018) provided by Apexbio (United States). In brief, cells were seeded in 96-wells plates at a density of 3 × 10^3/well for 24 h. Then, cells were treated with indicated concentrations of compounds for 72 h. Supernatant was totally removed, and 100 μL of CCK-8 solution was added to each well and cultured for another 1 h at 37°C. The absorbance of plates was measured by SpectraMax M2 (Molecular Devices, San Jose, CA, United States) at 450 nm. […] Assays were performed on three independent experiments.

[3] = tested on: PC9 cells; assay: Cell cycle analysis (PI staining flow cytometry); type: cell-based, human; settings: 500 nM, 24 h, compared to blank group
Method: (§2) For cell cycle detection, Cells were harvested and gently washed with PBS, and fixed with 70% cold ethanol −20°C overnight. After centrifugation, Cells were retained for precipitation and incubated with PI/RNase Staining Buffer (BD Bioscience, Oxford, United Kingdom) for 15 min in the dark at 37°C.
(§3) All samples were acquired by flow cytometry (FACS CantoⅡ, BD Bioscience) and analysed with Flowjo software version 10.4.

[4] = tested on: A549 cells; assay: Cell cycle analysis (PI staining flow cytometry); type: cell-based, human; settings: 2 μM, 24 h
Method: as §2, §3

[5] = tested on: A549 cells; assay: Anti-proliferation activity assay (CCK-8); type: cell-based; settings: Homo sapiens, 72 h
Method: as §1

[6] = tested on: Bel-7402 cells; assay: Anti-proliferation activity assay (CCK-8); type: cell-based; settings: Homo sapiens, 72 h
Method: as §1

[7] = tested on: PC9 cells; assay: Cell apoptosis analysis (Annexin V/PI flow cytometry); type: cell-based, human; settings: 500 nM, 72 h; for percentage of apoptotic cells (early apoptosis + late apoptosis): blank control 13.24%
Method: (§4) For apoptosis detection, Cells were performed with Pharmingen FITC Annexin V Detection KitⅠ(BD Bioscience, Oxford, UK). Briefly, Cells were harvested and washed once with 1×binding buffer and then incubated with Annexin V and Propidium Iodide (PI) for 15 min in the dark at 37°C.
as §3

[8] = tested on: A549 cells; assay: as above; type: cell-based, human; settings: 2 μM, 72 h; for percentage of apoptotic cells (early apoptosis + late apoptosis): blank control 9.86%
Method: as §4, §3

[9] = tested on: PC9 cells; assay: Anti-proliferation activity assay (CCK-8); type: cell-based; settings: Homo sapiens, PC-9, 72 h
Method: as §1

Chain of WEE1 kinase (P30291 whole entry): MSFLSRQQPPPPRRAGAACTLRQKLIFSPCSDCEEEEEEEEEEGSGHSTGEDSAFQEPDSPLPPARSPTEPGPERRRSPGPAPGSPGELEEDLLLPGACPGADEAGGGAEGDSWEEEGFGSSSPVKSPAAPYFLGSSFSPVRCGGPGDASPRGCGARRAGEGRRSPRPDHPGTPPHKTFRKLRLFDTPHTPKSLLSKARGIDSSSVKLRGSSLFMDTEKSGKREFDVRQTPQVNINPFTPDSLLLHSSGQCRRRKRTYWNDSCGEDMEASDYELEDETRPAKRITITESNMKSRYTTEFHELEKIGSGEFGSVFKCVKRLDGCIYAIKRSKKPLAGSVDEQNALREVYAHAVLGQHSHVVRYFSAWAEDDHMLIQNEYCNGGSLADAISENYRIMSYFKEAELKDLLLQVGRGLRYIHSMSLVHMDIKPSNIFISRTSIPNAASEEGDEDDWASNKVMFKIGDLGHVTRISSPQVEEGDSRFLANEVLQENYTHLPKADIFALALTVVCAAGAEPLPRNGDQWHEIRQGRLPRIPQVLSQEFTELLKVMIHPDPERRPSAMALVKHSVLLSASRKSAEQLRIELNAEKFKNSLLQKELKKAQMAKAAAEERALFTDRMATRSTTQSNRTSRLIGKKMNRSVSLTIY

Inhibition Rate [1]: 64.18 ± 1.16%
Compound: Denfivontinib [Compound 1]

Compound: CCN1CCN(C(=O)Cc2ccc(Nc3ncc(F)c(Nc4ccc(C(=O)Nc5ccccc5Cl)cc4)n3)cc2)CC1 [Compound 8, TCS7010]
IC50 [1]: 797 nM
Inhibition Rate [1]: 95.45 ± 2.24%
inhibition at 25 µM [1]: ~100%

IC50 [1]: 1.07 nM
Inhibition Rate [1]: 126.59 ± 1.66%
IC50 ([2]; 72 h): 875 nM
IC50 ([2]; Homo sapiens, Huh-7, 72 h): 880 nM
IC50 [5]: 5170 nM
IC50 [6]: 147 nM
Compound: CNC(=O)c1ccccc1Nc1nc(Nc2ccc(N3CCN(CCCN)CC3)cc2)ncc1Cl [Compound 4, GSK3182571]
proportion of cells in the G1 phase [3]: significantly increased
proportion of cells in the G2 phase [3]: did not change significantly
cell cycle distribution [4]: no significant change
Q1 (flow cytometry quadrant) [7]: 0.014
Q2% (late apoptosis rate) [7]: 4.55%
Q3% (early apoptosis rate) [7]: 80.2%
Q4 (flow cytometry quadrant) [7]: 15.2
percentage of apoptotic cells (early apoptosis + late apoptosis) [7]: 84.75%
Q2% (late apoptosis rate) [8]: 8.55%
Q3% (early apoptosis rate) [8]: 9.18%
Q4 (flow cytometry quadrant) [8]: 82.2
percentage of apoptotic cells (early apoptosis + late apoptosis) [8]: 17.73%

Compound: C=CCn1c(=O)c2cnc(Nc3ccc(N4CCN(C)CC4)cc3)nc2n1-c1cccc(C(C)(C)O)n1 [AZD1775, Adavosertib, reference compound]
cell cycle distribution [4]: no significant change
Q1 (flow cytometry quadrant) [7]: 0.015
Q2% (late apoptosis rate) [7]: 5.20%
Q3% (early apoptosis rate) [7]: 22.0%
Q4 (flow cytometry quadrant) [7]: 72.8
percentage of apoptotic cells (early apoptosis + late apoptosis) [7]: 27.20%
Q2% (late apoptosis rate) [8]: 5.52%
Q3% (early apoptosis rate) [8]: 11.1%
Q4 (flow cytometry quadrant) [8]: 83.3
percentage of apoptotic cells (early apoptosis + late apoptosis) [8]: 16.62%

IC50 [1]: 988 nM
Inhibition Rate [1]: 127.17 ± 1.08%
Compound: CNS(=O)(=O)c1ccccc1Nc1nc(Nc2ccc(N3CCN(C)CC3)cc2OC)ncc1Cl [Compound 3, ALK inhibitor 2]

IC50 [1]: 3.77 nM
Inhibition Rate [1]: 137.84 ± 1.08%
IC50 ([2]; Homo sapiens, Huh-7, 72 h): 80000 nM
IC50 [9]: 8880 nM
Compound: CNC(=O)c1nn(C)c2c1C(C)(C)Cc1cnc(Nc3ccc(N4CCN(C)CC4)cc3)nc1-2 [Compound 5, Milciclib]

inhibition at 25 µM [1]: 24.8 ± 2.33%
Compound: CN1CCCN(C(=O)c2cccc(-c3ccc(/C=C4/C(=O)Nc5ccc(Cl)cc54)o3)c2)CC1 [Compound 6, CX-6258 hydrochloride]

inhibition at 25 µM [1]: 58.2 ± 4.03%
Compound: C[C@@H](Oc1ccc2[nH]nc(/C=C/c3cnn(CCO)c3)c2c1)c1c(Cl)cncc1Cl [Compound 9, LY2874455]

inhibition at 25 µM [1]: 32.77 ± 0.22%
Compound: COc1cc(-c2cc(-c3ccc(N4CCNCC4)cc3)cnc2C)cc(OC)c1OC [Compound 10, LDN-214117]

IC50 [1]: 103 nM
Inhibition Rate [1]: 134.70 ± 1.61%
Compound: CCN1CCN(Cc2ccc(-c3cc4c(N[C@H](C)c5ccccc5)ncnc4[nH]3)cc2)CC1 [Compound 2, AEE788]
